Measured values reported in patent US10782295B2, “Cysteine-reactive ligand discovery in proteomes” (THE SCRIPPS RESEARCH INSTITUTE, priority 2013, dated 2020).

What was measured:
C22A-ZAK = biological target: T1, C22A-ZAK (Homo sapiens, UniProt Q9NYL2, C22A); experiment: in-gel fluorescence labeling by HNEyne probe; assay type: binding; settings: in vitro (10 μM) and in living cells (5 μM), 1 hour
T1 construct: Full-length cDNA encoding human ZAK-13 (BC001401); expressed in transfected cells
Experimental: (§1) The gel signals for IA-labeling of WT-ZAK were blocked by pretreatment with HNE over a concentration range that closely matched the HNE-sensitivity profile observed for C22 in competitive isoTOP-ABPP experiments (FIG. 4b, compare to FIG. 3a). […] Considering further that C22 is predicted to reside adjacent to the ATP-binding loop of ZAK, we postulated that the HNE-induced loss of kinase activity might be due to blockade of ATP-binding.
(§2) 50 μL of soluble lysate (1 mg/mL in PBS) of […] cells transfected with mock ZAKWT and ZAK-C22A was labeled with 10 μM of HNEyne4 (Cayman Chemicals, 1 μL of 500 μM stock in ethanol) for 1 hour at room temperature. Cycloaddition was performed with 200 μM rhodamine-azide, 1 mM TCEP, 100 μM TBTA ligand and 1 mM CuSO4. The reaction was allowed to proceed at room temperature for 1 hour before quenching with 20 μL of 4×SDS-PAGE loading buffer (reducing). Quenched reactions were separated by SDS-PAGE (40 μL of sample/lane) and visualized in-gel using a fluorescence scanner. For the in situ HNEyne labeling, WT- and C22A-ZAK transfected cells were grown in a 6-well plate to 100% confluency and switched into 1 mL of serum-free DMEM medium. […] 50 μL of soluble lysates were subjected to the cycloaddition protocol as described above and probe labeling was monitored by in-gel fluorescence.

WT-ZAK = biological target: T2, WT-ZAK (Homo sapiens, UniProt Q9NYL2); experiment: in-gel fluorescence labeling by HNEyne probe; assay type: binding; settings: in vitro (10 μM) and in living cells (5 μM), 1 hour
T2 construct: Full-length cDNA encoding human ZAK-13 (BC001401); expressed in transfected cells
Experimental: as §1, §2

T1 sequence (Q9NYL2 1-455 isoform Q9NYL2-2 C22A): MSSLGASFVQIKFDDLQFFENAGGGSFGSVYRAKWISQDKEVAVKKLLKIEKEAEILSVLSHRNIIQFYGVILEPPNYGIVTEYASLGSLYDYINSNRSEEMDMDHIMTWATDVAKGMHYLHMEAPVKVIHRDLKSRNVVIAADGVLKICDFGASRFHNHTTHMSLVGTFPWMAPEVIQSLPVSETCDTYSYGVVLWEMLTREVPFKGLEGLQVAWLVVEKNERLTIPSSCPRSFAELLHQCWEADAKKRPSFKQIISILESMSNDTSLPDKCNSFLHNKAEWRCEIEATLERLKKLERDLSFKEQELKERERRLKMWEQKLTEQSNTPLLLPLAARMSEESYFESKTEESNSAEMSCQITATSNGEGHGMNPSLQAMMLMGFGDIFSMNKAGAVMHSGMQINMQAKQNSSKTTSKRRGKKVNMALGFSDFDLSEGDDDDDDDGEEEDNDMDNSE
T2 sequence (Q9NYL2 1-455 isoform Q9NYL2-2): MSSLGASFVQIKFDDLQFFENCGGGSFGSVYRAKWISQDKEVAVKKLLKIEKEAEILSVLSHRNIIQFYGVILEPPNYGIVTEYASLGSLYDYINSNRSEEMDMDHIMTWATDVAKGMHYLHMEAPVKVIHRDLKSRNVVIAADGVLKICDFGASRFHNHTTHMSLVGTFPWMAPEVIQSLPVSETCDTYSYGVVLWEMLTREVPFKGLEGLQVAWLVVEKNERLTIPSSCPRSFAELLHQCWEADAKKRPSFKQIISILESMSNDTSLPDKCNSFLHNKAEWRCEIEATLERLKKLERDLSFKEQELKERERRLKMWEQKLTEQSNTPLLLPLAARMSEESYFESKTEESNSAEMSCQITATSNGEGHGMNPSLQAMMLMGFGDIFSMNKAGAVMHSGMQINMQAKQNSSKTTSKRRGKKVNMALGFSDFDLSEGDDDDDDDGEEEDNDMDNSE

Structure (SMILES): C#CCCCC(O)C=CC=O (centres unmarked) [HNEyne]
- probe labeling of C22A-ZAK mutant (C22A-ZAK): but not the C22A-ZAK mutant
- probe labeling of WT-ZAK (WT-ZAK): direct labeling
